Laboratory results taken from patent publication US20120058999A1, “Substituted Tetrahydropyrrolopyrazine Compounds” (Gruenenthal GmbH, priority 2010, published 2012).

Tests used:
[1] = molecular target: T1, rat B1R (Rattus norvegicus, UniProt P97583); assay: Functional investigation on the bradykinin 1 receptor, cell-based fluorescent calcium-mobilization assay (FLIPR), rat; settings: 10 μM test substance; CHO K1 cells transfected with rat B1R gene; agonist Des-Arg9-bradykinin at EC80; % of maximum achievable inhibition
T1 construct: expressed in transfected cells; host or cells: CHO K1 cells (stably transfected)
T1 sequence (P97583 1-337): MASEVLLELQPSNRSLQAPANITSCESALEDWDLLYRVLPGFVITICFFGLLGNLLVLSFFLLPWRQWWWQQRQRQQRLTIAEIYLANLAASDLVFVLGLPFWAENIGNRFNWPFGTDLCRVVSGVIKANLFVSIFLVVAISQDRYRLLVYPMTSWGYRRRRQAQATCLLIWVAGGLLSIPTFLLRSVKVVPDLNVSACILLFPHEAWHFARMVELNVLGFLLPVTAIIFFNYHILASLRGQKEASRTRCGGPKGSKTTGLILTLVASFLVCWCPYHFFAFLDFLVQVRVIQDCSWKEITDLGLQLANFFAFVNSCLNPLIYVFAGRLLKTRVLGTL
Description: (§1) The agonistic or antagonistic action of substances can be quantified on the bradykinin 1 receptor (B1R) of the human and rat species with ectopically expressing cell lines (CHO K1 cells) and with the aid of a Ca2+-sensitive dye (Fluo-4) using a fluorescent imaging plate reader (FLIPR). The value in % activation is based on the Ca2+ signal after addition of Lys-Des-Arg9 bradykinin (0.5 nM) or Des-Arg9 bradykinin (100 nM). Antagonists lead to a suppression of the Ca2+ influx following administration of the agonist. The % inhibition in comparison with the maximum achievable inhibition is indicated.
(§2) The agonistic or antagonistic action of substances can be determined on the bradykinin 1 receptor (B1R) of humans and rats by means of a cell-based fluorescent calcium-mobilization assay. According to this assay agonist-induced increase of intracellular free Ca^2+ is quantified by means of a Ca^2+-sensitive dye (Fluo-4 type, Molecular Probes Europe BV, Leiden, Netherlands), in a Fluorescent Imaging Plate Reader (FLIPR, Molecular Devices, Sunnyvale, USA) and/or the Novostar (BMG Labtech GmbH, Offenburg, Germany).
(§3) Chinese hamster ovary cells (CHO K1 cells), which are stably transfected with the human B1R gene (hB1R cells), or with the B1R gene of rats (rB1R cells) are used. For functional investigations these cells are seeded into black 96-well plates with a clear bottom (BD Biosciences, Heidelberg, Germany or Greiner, Frickenhausen, Germany) in a density of 20,000-35,000 cells/well. The cells are incubated overnight in a humidified atmosphere at 37° C. and 5% CO2 in culture medium (hB1R cells: Nutrient Mixture Ham's F12, Gibco Invitrogen GmbH, Karlsruhe, Germany or DMEM, Sigma-Aldrich, Taufkirchen, Germany; rB1R cells: D-MEM/F12, Gibco Invitrogen GmbH, Karlsruhe, Germany) with 10 vol. % FBS (foetal bovine serum, Gibco Invitrogen GmbH, Karlsruhe, Germany). On the following day the cells are loaded with the Ca^2+-sensitive dye Fluo-4-AM (Molecular Probes Europe BV, Leiden, Netherlands):
(§4) Method A: The medium of the cells is removed and cell plates are incubated with loading solution, which contains 2.13 μM Fluo-4-AM, 2.5 mM probenecid (Sigma-Aldrich, Taufkirchen, Germany), and 10 mM HEPES (Sigma-Aldrich, Taufkirchen, Germany) in HBSS buffer (Hank's buffered saline solution, Gibco Invitrogen GmbH, Karlsruhe, Germany) for 60 minutes at 37° C. After the plates are washed twice with HBSS buffer, HBSS buffer supplemented 0.1% BSA (bovine serum albumin; Sigma-Aldrich, Taufkirchen, Germany), 5.6 mM glucose and 0.05% gelatine (Merck KGaA, Darmstadt, Germany) is added. Cell plates are incubated for at least 20 minutes in the dark at room temperature before they are used for the Ca^2+ measurement in the FLIPR or Novostar. Method B: The plates are washed with buffer A (15 mM HEPES, 80 mM NaCl, 5 mM KCl, 1.2 mM CaCl2, 0.7 mM MgSO4, 2 mg/ml glucose, 2.5 mM probenecid) and subsequently loaded with buffer A containing 2.4 μM Fluo-4-AM and 0.025% pluronic F127 (Sigma-Aldrich, Taufkirchen, Germany) for 60 minutes at 37° C. Cell plates are washed twice with buffer A. Then, buffer A supplemented with 0.05% BSA and 0.05% gelatine is added and cell plates are incubated in the dark at room temperature for at least 20 minutes before measurement in the FLIPR or Novostar is started.
(§5) The Ca^2+-dependent fluorescence is measured both before and after the addition of substances (λex=488 nm, λem=540 nm). For quantification of the effect the highest fluorescence intensity (FC, fluorescence counts) over time is given.
(§6) The FLIPR protocol consists of two substance additions, done within the instrument while continuously monitoring the Ca^2+-dependent fluorescence at 540 nm. When the Novostar was used, one addition had to be done outside the instrument. First of all test substances (10 μM) are pipetted onto the cells and the intracellular Ca^2+ rise is compared with the control (hB1R: Lys-Des-Arg9-bradykinin >=50 nM; rB1R: Des-Arg9-bradykinin >=1 μM). […]

[2] = molecular target: T2, human B1R (Homo sapiens, UniProt P46663); assay: Functional investigation on the bradykinin 1 receptor, cell-based fluorescent calcium-mobilization assay (FLIPR), human; settings: 10 μM test substance; CHO K1 cells transfected with human B1R gene; agonist Lys-Des-Arg9-bradykinin at EC80; % of maximum achievable inhibition
T2 construct: expressed in transfected cells; host or cells: CHO K1 cells (stably transfected)
T2 sequence (P46663 1-353): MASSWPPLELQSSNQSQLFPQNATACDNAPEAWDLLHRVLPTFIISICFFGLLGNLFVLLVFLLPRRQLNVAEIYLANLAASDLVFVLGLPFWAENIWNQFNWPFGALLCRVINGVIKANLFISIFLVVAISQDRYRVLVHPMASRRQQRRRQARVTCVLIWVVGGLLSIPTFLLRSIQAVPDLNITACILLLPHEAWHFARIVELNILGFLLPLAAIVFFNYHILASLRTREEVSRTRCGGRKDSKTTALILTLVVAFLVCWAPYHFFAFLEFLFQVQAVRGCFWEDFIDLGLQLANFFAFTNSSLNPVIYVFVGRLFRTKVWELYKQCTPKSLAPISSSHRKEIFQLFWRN
Description: as §1, §2, §3, §4, §5, §6

inhibition at 10 µM [1] [%]	inhibition at 10 µM [2] [%]	SMILES
101	86	COc1cc(C)c(S(=O)(=O)N2CCn3cccc3C2CCCC(=O)N[C@H]2CCC[C@@H](N3CCN(C)CC3)C2)c(C)c1 (relative stereo) [CC-07, 4-[2-[(4-Methoxy-2,6-dimethyl-phenyl)sulfonyl]-1,2,3,4-tetrahydro-pyrrolo[1,2-a]pyrazin-1-yl]-N-[cis-3-(4-methyl-piperazin-1-yl)-cyclohexyl]-butyramide]
88	38	COc1cc(C)c(S(=O)(=O)N2CCn3cccc3C2COCC(=O)N(C)C2CC(N3CCN(C)CC3)C2)c(C)c1 (stereo not shown) [CC-58, 2-[[2-[(4-Methoxy-2,6-dimethyl-phenyl)sulfonyl]-1,2,3,4-tetrahydro-pyrrolo[1,2-a]pyrazin-1-yl]-methoxy]-N-methyl-N-[3-(4-methyl-piperazin-1-yl)-cyclobutyl]-acetamide]
97	80	COc1cc(C)c(S(=O)(=O)N2CCn3cccc3C2CCCC(=O)N(C)C2CC(N3CCN(C)CC3)C2)c(C)c1 (stereo not shown) [CC-59, 4-[2-[(4-Methoxy-2,6-dimethyl-phenyl)sulfonyl]-1,2,3,4-tetrahydro-pyrrolo[1,2-a]pyrazin-1-yl]-N-methyl-N-[3-(4-methyl-piperazin-1-yl)-cyclobutyl]-butyramide]
14	12	CN1CCN(C2CC(N(C)C(=O)CCC3c4cccn4CCN3S(=O)(=O)c3cccc(C(F)(F)F)c3)C2)CC1 (stereo not shown) [CC-61, N-Methyl-N-[3-(4-methyl-piperazin-1-yl)-cyclobutyl]-3-[2-[[3-(trifluoromethyl)phenyl]sulfonyl]-1,2,3,4-tetrahydro-pyrrolo[1,2-a]pyrazin-1-yl]-propionamide]
103	100	COc1cc(C)c(S(=O)(=O)N2CCn3cccc3C2COCC(=O)N(C)[C@H]2CCC[C@@H](N3CCN(C)CC3)C2)c(C)c1 (stereo partly drawn) [SC-01, 2-[[2-[(4-Methoxy-2,6-dimethyl-phenyl)sulfonyl]-1,2,3,4-tetrahydro-pyrrolo[1,2-a]pyrazin-1-yl]-methoxy]-N-methyl-N-[(1S,3R)-3-(4-methyl-piperazin-1-yl)-cyclohexyl]-acetamide]
105	100	Cc1cccc(Cl)c1S(=O)(=O)N1CCn2cccc2C1COCC(=O)N(C)[C@H]1CCC[C@@H](N2CCN(C)CC2)C1 (stereo partly drawn) [SC-02, 2-[[2-[(2-Chloro-6-methyl-phenyl)sulfonyl]-1,2,3,4-tetrahydro-pyrrolo[1,2-a]pyrazin-1-yl]-methoxy]-N-methyl-N-[(1S,3R)-3-(4-methyl-piperazin-1-yl)-cyclohexyl]-acetamide]
61	95	Cc1cc(S(=O)(=O)N2CCn3cccc3C2CCC(=O)N(C)[C@H]2CCC[C@@H](N3CCN(C)CC3)C2)c(C)cc1Cl (stereo partly drawn) [SC-03, 3-[2-[(4-Chloro-2,5-dimethyl-phenyl)sulfonyl]-1,2,3,4-tetrahydro-pyrrolo[1,2-a]pyrazin-1-yl]-N-methyl-N-[(1S,3R)-3-(4-methyl-piperazin-1-yl)-cyclohexyl]-propionamide]
100	101	COc1cc(C)c(S(=O)(=O)N2CCn3cccc3C2COCC(=O)N(C)C2CCC(N3CCN(C)CC3)CC2)c(C)c1 (stereo not shown) [SC-05, 2-[[2-[(4-Methoxy-2,6-dimethyl-phenyl)sulfonyl]-1,2,3,4-tetrahydro-pyrrolo[1,2-a]pyrazin-1-yl]-methoxy]-N-methyl-N-[4-(4-methyl-piperazin-1-yl)-cyclohexyl]-acetamide]
110	97	COc1cc(C)c(S(=O)(=O)N2CCn3c(C)ccc3C2COCC(=O)N(C)[C@H]2CCC[C@@H](N3CCN(C)CC3)C2)c(C)c1 (stereo partly drawn) [SC-06, 2-[[2-[(4-Methoxy-2,6-dimethyl-phenyl)sulfonyl]-6-methyl-1,2,3,4-tetrahydro-pyrrolo[1,2-a]pyrazin-1-yl]-methoxy]-N-methyl-N-[(1S,3R)-3-(4-methyl-piperazin-1-yl)-cyclohexyl]-acetamide]

SMILES	inhibition at 10 µM [1] [%]	inhibition at 10 µM [2] [%]
CN1CCN([C@@H]2CCC[C@H](NC(=O)CCC3c4cccn4CCN3S(=O)(=O)c3cccc(C(F)(F)F)c3)C2)CC1 (relative stereo) [CC-10, N-[cis-3-(4-Methyl-piperazin-1-yl)-cyclohexyl]-3-[2-[[3-(trifluoromethyl)phenyl]sulfonyl]-1,2,3,4-tetrahydro-pyrrolo[1,2-a]pyrazin-1-yl]-propionamide]	36	29
COc1ccc2cc(S(=O)(=O)N3CCn4cccc4C3CC(=O)N(C)C3CC(N4CCN(C)CC4)C3)ccc2c1 (stereo not shown) [CC-60, 2-[2-[(6-Methoxy-naphthalen-2-yl)sulfonyl]-1,2,3,4-tetrahydro-pyrrolo[1,2-a]pyrazin-1-yl]-N-methyl-N-[3-(4-methyl-piperazin-1-yl)-cyclobutyl]-acetamide]	106	99
